For orientation: IC50 means the concentration that inhibits the measured activity by half. Higher therefore signals weaker potency.

Test [1] concerns the target T1, prostate specific membrane antigen (PSMA) (Homo sapiens, UniProt Q04609). Put plainly: competitive binding on LNCaP cells with […]-GPI radioligand. The format is cell-based.
In test [2] the target is T1, prostate specific membrane antigen (PSMA). Described as above. The class given is cell-based. The source holds these as a separate data set.

Like-named read-outs stand apart in the source and are kept apart here.

T1 sequence (Q04609 whole entry): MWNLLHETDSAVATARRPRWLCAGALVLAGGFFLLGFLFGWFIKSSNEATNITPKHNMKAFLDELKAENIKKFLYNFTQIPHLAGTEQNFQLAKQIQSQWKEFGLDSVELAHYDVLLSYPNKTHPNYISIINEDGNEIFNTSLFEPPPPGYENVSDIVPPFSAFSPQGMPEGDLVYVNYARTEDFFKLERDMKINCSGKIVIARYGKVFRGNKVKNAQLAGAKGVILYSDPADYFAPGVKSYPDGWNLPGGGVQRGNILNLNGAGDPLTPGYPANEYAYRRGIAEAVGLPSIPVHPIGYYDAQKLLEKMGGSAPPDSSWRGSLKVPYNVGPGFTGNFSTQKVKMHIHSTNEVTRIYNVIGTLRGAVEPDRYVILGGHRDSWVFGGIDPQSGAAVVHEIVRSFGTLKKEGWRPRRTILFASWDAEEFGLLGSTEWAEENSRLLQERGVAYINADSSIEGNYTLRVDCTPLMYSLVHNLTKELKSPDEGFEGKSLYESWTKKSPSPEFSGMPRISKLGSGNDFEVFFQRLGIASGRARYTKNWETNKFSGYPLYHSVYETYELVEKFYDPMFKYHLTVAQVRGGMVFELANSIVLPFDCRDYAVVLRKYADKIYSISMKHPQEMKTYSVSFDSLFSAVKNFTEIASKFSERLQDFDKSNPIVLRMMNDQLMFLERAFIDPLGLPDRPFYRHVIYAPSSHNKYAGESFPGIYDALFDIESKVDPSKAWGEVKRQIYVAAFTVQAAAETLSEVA

In test [1], `NC(CCP(=O)(O)CC(CCC(=O)O)C(=O)O)C(=O)O` (racemic) [GPI, 2[(3-amino-3-carboxypropyl)(hydroxy)(phosphinyl)-methyl]pentane-1,5-dioic acid] gave an IC50 of 460 ± 13 nM.

Compound `O=C(O)CCC(CP(=O)(O)CCC(NC(=O)CCC(C(=O)O)N1CCCN2CCN(CCCN(CC(=O)O)CC2)CC1)C(=O)O)C(=O)O` (racemic) [H2CBT1G] displayed an IC50 in test [2] of 578 ± 81 nM.

In test [2], `O=C(O)CCC(CP(=O)(O)CCC(NC(=O)CCC(C(=O)O)N1CCCN2CCN(CCCN(C(CCC(=O)NC(CCP(=O)(O)CC(CCC(=O)O)C(=O)O)C(=O)O)C(=O)O)CC2)CC1)C(=O)O)C(=O)O` (racemic) [H2CBT2G] returned a half-inhibitory concentration (IC50) of 129 ± 17 nM.

For the origin of these results see publication PMC3757929 (Molecular pharmaceutics, 2013).
